Results as given in PubChem BioAssay AID1259411 (Chemical Carcinogenesis Research Information System (CCRIS), 2018).
Active and inactive are the calls of the source. The rule behind the calls is not given here.

Tested on: rodent carcinogenicity bioassays, tumor incidence
Test: CCRIS carcinogenicity studies
Outline: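 NCI-built, expert-reviewed records of carcinogenicity and related test outcomes (mutagenicity, tumor promotion/inhibition) compiled from published and report sources, historical span 1985-2011, not updated.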

O=NN1CCNCC1
carcinogen call (Species: RAT, Strain/Sex: F344/FEMALE, Route: INTRAVESICAL, Dose: 0, 3.8 G (TOTAL DOSE) INJECTED INTO BLADDER 2/WK OVER 48 WK (STUDY DURATION: 102 WK), Tumor Site: Type of Lesion: NASAL CAVITY: TUMOR, BLADDER: TUMOR): active; positive

C[N+](C)(C)CCCl
carcinogen call (Species: MOUSE, Strain/Sex: B6C3F1/FEMALE, Route: ORAL, Dose: 0, 500, 2000 PPM IN DIET, Dose: 0, 500, 2000 PPM IN DIET): inactive; negative
carcinogen call (Species: MOUSE, Strain/Sex: B6C3F1/MALE, Route: ORAL, Dose: 0, 500, 2000 PPM IN DIET, Dose: 0, 500, 2000 PPM IN DIET): inactive; negative
carcinogen call (Species: RAT, Strain/Sex: F344/FEMALE, Route: ORAL, Dose: 0, 1500, 3000 PPM IN DIET, Dose: 0, 1500, 3000 PPM IN DIET): inactive; negative
carcinogen call (Species: RAT, Strain/Sex: F344/MALE, Route: ORAL, Dose: 0, 1500, 3000 PPM IN DIET, Dose: 0, 1500, 3000 PPM IN DIET): inactive; negative

CC/C(=C(\c1ccccc1)c1ccc(OCCN(C)C)cc1)c1ccccc1
carcinogen call (Species: MONKEY, Strain/Sex: CYNOMOLGUS/FEMALE, Route: ORAL, Dose: 0, 20 MG/WOMAN/D HUMAN DOSE EQUIVALENT IN DIET FOR 36 MONTHS BEGINNING 3 MONTHS POST BILATERAL OVARIECTOMY (STUDY DURATI): inactive; negative
carcinogen call (Species: MOUSE, Strain/Sex: CD-1/FEMALE, Route: SUBCUTANEOUS, Dose: 0, 1, 2, 5, 10, 25, 50 UG/D ON DAYS 1-5 OF LIFE (STUDY DURATION: 17 MO), Dose: 0, 1, 2, 5, 10, 25, 50 UG/D ON DAYS 1-5 OF LIFE (STUDY DURATION: 17 MO), Tumor Site: Type of Lesion: UTERUS: ADENOCARCINOMA): active; positive
carcinogen call (Species: Mouse, Strain/Sex: CD-1/Female (30/group), Route: Subcutaneous, Dose: 0, 10 ug as tamoxifen in peanut oil, dosed on days 1-5 of life and retained for 1.5 (4 animals), 3 (4 animals), 6 (4 ani, Dose: 0, 10 ug as tamoxifen in peanut oil, dosed on days 1-5 of life and retained for 1.5 (4 animals), 3 (4 animals), 6 (4 ani, Tumor Site: Type of Lesion: Uterus and ovaries examined): inactive; negative
carcinogen call (Species: Mouse, Strain/Sex: CD-1/Female (35/group), Route: Subcutaneous, Dose: 0, 5, 10, 25, 50 ug as tamoxifen in peanut oil, dosed on days 1-5 of life and retained for 3 (4 animals), 6 (4 animals),, Dose: 0, 5, 10, 25, 50 ug as tamoxifen in peanut oil, dosed on days 1-5 of life and retained for 3 (4 animals), 6 (4 animals),, Tumor Site: Type of Lesion: Uterus and ovaries examined): inactive; negative (nonneoplastic changes were observed)
carcinogen call (Species: RAT, Strain/Sex: ALDERLEY PARK/FEMALE, Route: GAVAGE, Dose: 0, 5, 20, 35 MG/KG/D IN 0.5% HYDROXYPROPYL METHYLCELLULOSE FOR 2 YR (STUDY DURATION: 2 YR), Dose: 0, 5, 20, 35 MG/KG/D IN 0.5% HYDROXYPROPYL METHYLCELLULOSE FOR 2 YR (STUDY DURATION: 2 YR), Tumor Site: Type of Lesion: LIVER: HEPATOCELLULAR ADENOMA, HEPATOCELLULAR CARCINOMA, HEPATO/CHOLANGIOCELLULAR CARCINOMA): active; positive
carcinogen call (Species: RAT, Strain/Sex: ALDERLEY PARK/MALE, Route: GAVAGE, Dose: 0, 5, 20, 35 MG/KG/D IN 0.5% HYDROXYPROPYL METHYLCELLULOSE FOR 2 YR (STUDY DURATION: 2 YR), Dose: 0, 5, 20, 35 MG/KG/D IN 0.5% HYDROXYPROPYL METHYLCELLULOSE FOR 2 YR (STUDY DURATION: 2 YR), Tumor Site: Type of Lesion: LIVER: HEPATOCELLULAR ADENOMA, HEPATOCELLULAR CARCINOMA, HEPATO/CHOLANGIOCELLULAR CARCINOMA): active; positive
carcinogen call (Species: RAT, Strain/Sex: SPRAGUE-DAWLEY/FEMALE, Route: GAVAGE, Dose: 0, 2.8, 11.3, 45.2 MG/KG/D IN CARBOXYMETHYL-CELLULOSE FOR UP TO 1 YR WITH 2 RECOVERY PERIODS, 4 WK OF RECOVERY AFTER 6 M, Dose: 0, 2.8, 11.3, 45.2 MG/KG/D IN CARBOXYMETHYL-CELLULOSE FOR UP TO 1 YR WITH 2 RECOVERY PERIODS, 4 WK OF RECOVERY AFTER 6 M, Tumor Site: Type of Lesion: LIVER: ADENOMA, CARCINOMA): active; positive
carcinogen call (Species: RAT, Strain/Sex: SPRAGUE-DAWLEY/FEMALE, Route: GAVAGE, Dose: 0, 11.3, 22.6 MG/KG IN 0.5% CARBOXYMETHYLCELLULOSE 1/D 7 D/WK FOR UP TO 12 MO (STUDY DURATION: 15 MO), Dose: 0, 11.3, 22.6 MG/KG IN 0.5% CARBOXYMETHYLCELLULOSE 1/D 7 D/WK FOR UP TO 12 MO (STUDY DURATION: 15 MO), Tumor Site: Type of Lesion: LIVER: HEPATOCELLULAR ADENOMA, HEPATOCELLULAR CARCINOMA): active; positive
carcinogen call (Species: RAT, Strain/Sex: WISTAR/FEMALE, Route: ORAL, Dose: 0, 1 MG/KG BW/D IN PEANUT OIL/LECITHIN/CONDENSED MILK MIXTURE ON DAYS 2-5 OF AGE (STUDY DURATION: 35 MONTHS), Tumor Site: Type of Lesion: UTERUS: ADENOCARCINOMA, VAGINA/CERVIX: SQUAMOUS CELL CARCINOMA): active; positive
carcinogen call (Species: RAT, Strain/Sex: WISTAR/FEMALE, Route: ORAL, Dose: 0, 420 PPM IN DIET FOR 3 MO (STUDY DURATION: LIFETIME), Tumor Site: Type of Lesion: LIVER: TUMOR): active; positive

O=P(=O)O
carcinogen call (Species: RAT, Strain/Sex: F344/FEMALE, Route: INHALATION, Dose: 0, 1, 5, 25 MG/M3 6 HR/D 5 D/WK FOR 24 MO (STUDY DURATION: 24 MO), Dose: 0, 1, 5, 25 MG/M3 6 HR/D 5 D/WK FOR 24 MO (STUDY DURATION: 24 MO)): inactive; negative
carcinogen call (Species: RAT, Strain/Sex: F344/MALE, Route: INHALATION, Dose: 0, 1, 5, 25 MG/M3 6 HR/D 5 D/WK FOR 24 MO (STUDY DURATION: 24 MO), Dose: 0, 1, 5, 25 MG/M3 6 HR/D 5 D/WK FOR 24 MO (STUDY DURATION: 24 MO)): inactive; negative

CO/N=C(/C1=NOCCO1)c1ccccc1Oc1ncnc(Oc2ccccc2Cl)c1F
carcinogen call (Species: Mouse, Strain/Sex: CD-1/Female (50/Group), Route: Oral, Dose: 0, 29.5, 204.0, 1265.1 mg/kg/day of 94.3% - 94.5% fluoxastrobin in diet for 18 mo, study duration 18 mo, Dose: 0, 29.5, 204.0, 1265.1 mg/kg/day of 94.3% - 94.5% fluoxastrobin in diet for 18 mo, study duration 18 mo): inactive; negative
carcinogen call (Species: Mouse, Strain/Sex: CD-1/Male (50/Group), Route: Oral, Dose: 0, 18.6, 135.4, 775.6 mg/kg/day of 94.3% - 94.5% fluoxastrobin in diet for 18 mo, study duration 18 mo, Dose: 0, 18.6, 135.4, 775.6 mg/kg/day of 94.3% - 94.5% fluoxastrobin in diet for 18 mo, study duration 18 mo): inactive; negative
carcinogen call (Species: Rat, Strain/Sex: Wistar/Female (50/Group), Route: Oral, Dose: 0, 6.9, 35.2, 181.3, 1083.2 mg/kg/day of 94.3-94.6% fluoxastrobin in diet for 2 yr, study duration 2 yr, Dose: 0, 6.9, 35.2, 181.3, 1083.2 mg/kg/day of 94.3-94.6% fluoxastrobin in diet for 2 yr, study duration 2 yr, Tumor Site: Type of Lesion: Uterus: adenocarcinoma (highest dose only)): active; positive
carcinogen call (Species: Rat, Strain/Sex: Wistar/Male (50/Group), Route: Oral, Dose: 0, 2.1, 5.2, 53.0, 271.9 mg/kg/day of 94.3-94.6% fluoxastrobin in diet for 2 yr, study duration 2 yr, Dose: 0, 2.1, 5.2, 53.0, 271.9 mg/kg/day of 94.3-94.6% fluoxastrobin in diet for 2 yr, study duration 2 yr): inactive; negative

CCOc1ccc(NC(C)=O)cc1[N+](=O)[O-]
carcinogen call (Species: MOUSE, Strain/Sex: B6C3F1/FEMALE, Route: ORAL, Dose: 0, 0.73, 1.46% OF DIET, TWA, Dose: 0, 0.73, 1.46% OF DIET, TWA): inactive; negative
carcinogen call (Species: MOUSE, Strain/Sex: B6C3F1/MALE, Route: ORAL, Dose: 0, 0.73, 1.46% OF DIET, TWA, Dose: 0, 0.73, 1.46% OF DIET, TWA, Tumor Site: Type of Lesion: LIVER: HEPATOCELLULAR CARCINOMA OR ADENOMA): active; positive
carcinogen call (Species: RAT, Strain/Sex: F344/FEMALE, Route: ORAL, Dose: 0, 0.18, 0.36% OF DIET, TWA, Dose: 0, 0.18, 0.36% OF DIET, TWA): inactive; negative
carcinogen call (Species: RAT, Strain/Sex: F344/MALE, Route: ORAL, Dose: 0, 0.18, 0.36% OF DIET, TWA, Dose: 0, 0.18, 0.36% OF DIET, TWA): inactive; negative

C[C@H]1O[C@@H]1Cl
carcinogen call (Species: MOUSE, Strain/Sex: ICR/FEMALE, Route: DERMAL, Dose: 10 MG IN 0.1 ML ACETONE 3/WK FOR LIFE, Tumor Site: Type of Lesion: INTEGUMENTARY SYSTEM (SKIN): PAPILLOMA, SQUAMOUS CELL CARCINOMA): active; positive
carcinogen call (Species: MOUSE, Strain/Sex: ICR/FEMALE, Route: SUBCUTANEOUS, Dose: 1 MG IN 0.05 ML TRICAPRYLIN 1/WK FOR LIFE, Tumor Site: Type of Lesion: INJECTION SITE: FIBROSARCOMA, CARCINOMA): active; positive

CNC(=S)N(C)C
carcinogen call (Species: MOUSE, Strain/Sex: B6C3F1/FEMALE, Route: ORAL, Dose: 0, 500, 1000 PPM IN DIET, Dose: 0, 500, 1000 PPM IN DIET): inactive; negative
carcinogen call (Species: MOUSE, Strain/Sex: B6C3F1/MALE, Route: ORAL, Dose: 0, 500, 1000 PPM IN DIET, Dose: 0, 500, 1000 PPM IN DIET): inactive; negative
carcinogen call (Species: RAT, Strain/Sex: F344/FEMALE, Route: ORAL, Dose: 0, 250, 500 PPM IN DIET, Dose: 0, 250, 500 PPM IN DIET, Tumor Site: Type of Lesion: THYROID GLAND: FOLLICULAR CELL CARCINOMA OR ADENOMA): active; positive
carcinogen call (Species: RAT, Strain/Sex: F344/MALE, Route: ORAL, Dose: 0, 250, 500 PPM IN DIET, Dose: 0, 250, 500 PPM IN DIET): inactive; negative
